For data set [1] the following is noted: human gut metagenome, 24 h, 2 µM.
The conditions of data set [2]: human gut metagenome, 24 h, 2 µM. The source holds these as a separate data set.
The conditions of data set [3]: human gut metagenome, 24 h, 2 µM. This is another data set of the same source.
The conditions of data set [4]: human gut metagenome, 24 h, 2 µM. This is another data set of the same source.
A short description of data set [5]: The drug is tested on Z-002 corresponding to rabbit gut metagenome with ENA study accession number: PRJEB37062 and ENA sample accession number: ERS12561802 for biotransformation under anaerobic condition. The drug concentrations were measured over 9 timepoints collected between 0 and 24 hours of incubation by liquid-chromatography-coupled mass spectrometry (LC–MS). The note with it: 2 µM.

The conditions of data set [6]: human gut metagenome, 24 h, 2 µM. The source holds these as a separate data set.
For data set [7] the following is noted: human gut metagenome, 24 h, 2 µM. The source holds these as a separate data set.
The nature of data set [8]: The drug is tested on WLS-220 corresponding to human gut metagenome with ENA study accession number: PRJEB37062 and ENA sample accession number: ERS12561769 for biotransformation under anaerobic condition. The drug concentrations were measured over 9 timepoints collected between 0 and 24 hours of incubation by liquid-chromatography-coupled mass spectrometry (LC–MS). The note with it: 2 µM.

Data set [9] can be described thus: The drug is tested on WLS-240 corresponding to human gut metagenome with ENA study accession number: PRJEB37062 and ENA sample accession number: ERS12561773 for biotransformation under anaerobic condition. The drug concentrations were measured over 9 timepoints collected between 0 and 24 hours of incubation by liquid-chromatography-coupled mass spectrometry (LC–MS). The note with it: 2 µM.

The conditions of data set [10]: human gut metagenome, 24 h, 2 µM. This is another data set of the same source.
For data set [11] the following is noted: human gut metagenome, 24 h, 2 µM. The source holds these as a separate data set.
Data set [12] in a line: The drug is tested on Z-001 corresponding to mouse gut metagenome with ENA study accession number: PRJEB37062 and ENA sample accession number: ERS12561801 for biotransformation under anaerobic condition. The drug concentrations were measured over 9 timepoints collected between 0 and 24 hours of incubation by liquid-chromatography-coupled mass spectrometry (LC–MS). The note with it: 2 µM.

Data set [13] is described as follows: The drug is tested on Z-018 corresponding to pig gut metagenome with ENA study accession number: PRJEB37062 and ENA sample accession number: ERS12561817 for biotransformation under anaerobic condition. The drug concentrations were measured over 9 timepoints collected between 0 and 24 hours of incubation by liquid-chromatography-coupled mass spectrometry (LC–MS). The note with it: 2 µM.

For data set [14] the following is noted: human gut metagenome, 24 h, 2 µM. This is another data set of the same source.
The conditions of data set [15]: human gut metagenome, 24 h, 2 µM. This is another data set of the same source.
A short description of data set [16]: The drug is tested on WLS-370 corresponding to human gut metagenome with ENA study accession number: PRJEB37062 and ENA sample accession number: ERS12561793 for biotransformation under anaerobic condition. The drug concentrations were measured over 9 timepoints collected between 0 and 24 hours of incubation by liquid-chromatography-coupled mass spectrometry (LC–MS). The note with it: 2 µM.

Data set [17] in a line: The drug is tested on Z-004 corresponding to metagenome with ENA study accession number: PRJEB37062 and ENA sample accession number: ERS12561804 for biotransformation under anaerobic condition. The drug concentrations were measured over 9 timepoints collected between 0 and 24 hours of incubation by liquid-chromatography-coupled mass spectrometry (LC–MS). The note with it: 2 µM.

Data set [18] is described as follows: The drug is tested on WLS-082 corresponding to human gut metagenome with ENA study accession number: PRJEB37062 and ENA sample accession number: ERS12561751 for biotransformation under anaerobic condition. The drug concentrations were measured over 9 timepoints collected between 0 and 24 hours of incubation by liquid-chromatography-coupled mass spectrometry (LC–MS). The note with it: 2 µM.

Data set [19] in a line: The drug is tested on WLS-052 corresponding to human gut metagenome with ENA study accession number: PRJEB37062 and ENA sample accession number: ERS12561747 for biotransformation under anaerobic condition. The drug concentrations were measured over 9 timepoints collected between 0 and 24 hours of incubation by liquid-chromatography-coupled mass spectrometry (LC–MS). The note with it: 2 µM.

Data set [20] can be described thus: The drug is tested on Z-022 corresponding to mouse gut metagenome with ENA study accession number: PRJEB37062 and ENA sample accession number: ERS12561821 for biotransformation under anaerobic condition. The drug concentrations were measured over 9 timepoints collected between 0 and 24 hours of incubation by liquid-chromatography-coupled mass spectrometry (LC–MS). The note with it: 2 µM.
Further: call rule not given here.

For `O=C1N=C([O-])NC1(c1ccccc1)c1ccccc1.[Na+]` [PHENYTOIN SODIUM], the “Bacterial Biotransformation” value in data set [1] is recorded as “Compound metabolized”; in data set [2] it was “Compound metabolized”; in data set [3], “Compound metabolized”; in data set [4], “Compound NOT metabolized”; in data set [5], “Compound NOT metabolized”; in data set [6], “Compound metabolized”. Moreover, the “Bacterial Biotransformation” value is reported as “Compound metabolized” in [7]; “Compound metabolized” in data set [8]; “Compound metabolized” in data set [9]; “Compound metabolized” in [10]; “Compound metabolized” in [11]; “Compound NOT metabolized” in data set [12]. For the same molecule, the “Bacterial Biotransformation” value in data set [13] was “Compound NOT metabolized”; in data set [14] it was “Compound NOT metabolized”; in [15], “Compound NOT metabolized”; in data set [16] it was “Compound metabolized”; in [17] it was “Compound NOT metabolized”; in data set [18], “Compound metabolized”. In addition, the “Bacterial Biotransformation” value in data set [19] is recorded as “Compound metabolized”.

In the case of `CC(=O)SCC(Cc1ccccc1)C(=O)NCC(=O)OCc1ccccc1` (stereo unspecified) [RACECADOTRIL], the “Bacterial Biotransformation” value in data set [5], in [20], in [12], in [13] and in [17] was “Compound metabolized” each time.

In the case of `O=C1CCc2ccc(OCCCCN3CCN(c4cccc(Cl)c4Cl)CC3)cc2N1` [ARIPIPRAZOLE], the “Bacterial Biotransformation” value was “Compound NOT metabolized” in data set [5]; “Compound metabolized” in data set [20]; “Compound NOT metabolized” in data set [12]; “Compound metabolized” in data set [13]; “Compound NOT metabolized” in [17].

Turning to `C[C@]12C=CC(=O)C=C1CC[C@@H]1[C@@H]2C(=O)C[C@@]2(C)[C@H]1CC[C@]2(O)C(=O)CO` [PREDNISONE], the “Bacterial Biotransformation” value in data set [1] is given as “Compound NOT metabolized”; in data set [3] it was “Compound metabolized”; in data set [4] it was “Compound NOT metabolized”; in [5], “Compound metabolized”; in data set [20] it was “Compound metabolized”; in data set [7], “Compound metabolized”. For the same molecule, the “Bacterial Biotransformation” value in data set [8], in data set [9], in data set [10], in data set [11], in data set [12] and in data set [13] was “Compound metabolized” each time. In addition, the “Bacterial Biotransformation” value in data set [15], in data set [16], in data set [17], in [18] and in [19] was “Compound metabolized” in each case.

(Values after ChEMBL document CHEMBL5724914, “Linking interpersonal differences in gut microbiota composition and drug biotransformation activity” (2024).)
